Experimental data published in BindingDB's records for doi:10.1021/acsmedchemlett.0c00047 (Centre of Experimental Medicine, 2020).

Assay: Inhibition of SERCA1 in rat INS-1E cells assessed as reduction in cell viability incubated for 24 hrs by MTT assay

| SMILES | IC50 [µM] |
| --- | --- |
| COc1cc(O)c([C@@H]2CC(=O)c3c(O)cc(O)cc3O2)cc1C/C=C(\C)CCC=C(C)C | 64.8 |
| CC1(C)Oc2cc3oc(-c4cc(O)cc(O)c4)cc3cc2CC1O (stereo not given) [Moracin P] | 109 |
| CC(C)=CCc1c(-c2ccc(O)cc2O)oc2c3c(cc(O)c2c1=O)OC(C)(C)C=C3 [Morusin, 3] | 28.7 |
| CC(C)(O)C1Cc2cc3cc(-c4cc(O)cc(O)c4)oc3cc2O1 (stereo not given) [moracin O] | 111 |
| Cc1cc2c3c(c1)-c1c(O)cc(-c4cc5ccc(O)cc5o4)cc1O[C@@]3(c1ccc(O)cc1O)Oc1cc(O)ccc1-2 | 18.2 |
